From ChEMBL document CHEMBL1201862, “PubChem BioAssay data set” (2004)
Active and inactive are the calls of the source.

Key:
Candida albicans [1] = assay: resistant Candida growth with fluconazole co-treatment – CaCi-8 strain, Alamar Blue, dry powder, set 2, dose response (AID 488909); assay type: functional, organism-based
Candida albicans [2] = assay: Candida growth inhibition combined with fluconazole – CaCi-2 strain, Alamar Blue, dry powder, set 3, dose response (AID 488907); assay type: functional, organism-based
[3] = molecular target: T1, Nuclear receptor subfamily 0 group B member 1 (Homo sapiens, UniProt P51843); assay: Luminescence-based cell-based high throughput dose response assay for inhibitors of the orphan nuclear receptor subfamily 0, group B, member 1 (DAX1; NR0B1). [Related pubchem assays (depositor defined):AID504766, AID504790]; assay type: functional
T1 sequence (P51843 whole entry): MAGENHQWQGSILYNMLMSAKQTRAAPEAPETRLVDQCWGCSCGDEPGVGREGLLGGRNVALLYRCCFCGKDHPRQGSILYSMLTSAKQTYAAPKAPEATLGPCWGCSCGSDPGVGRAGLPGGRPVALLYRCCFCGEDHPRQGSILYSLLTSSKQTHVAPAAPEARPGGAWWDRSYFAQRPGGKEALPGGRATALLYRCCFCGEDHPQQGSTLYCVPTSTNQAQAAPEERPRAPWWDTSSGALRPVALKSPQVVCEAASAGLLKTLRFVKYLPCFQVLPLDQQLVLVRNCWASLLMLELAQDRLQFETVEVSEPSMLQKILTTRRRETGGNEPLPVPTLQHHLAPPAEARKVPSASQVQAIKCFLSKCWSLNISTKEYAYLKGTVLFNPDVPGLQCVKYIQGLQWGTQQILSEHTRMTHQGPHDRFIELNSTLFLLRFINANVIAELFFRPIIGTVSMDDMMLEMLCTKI

HEK293 [4] = assay: cells; assay type: functional, cell-based; details: Homo sapiens
HEK293 [5] = assay: EBV LMP1 TES2 canonical NF-kB signalling blockers – cell-based, HEK293, luciferase, cherry-pick, dose response (AID 588343); assay type: functional; details: Homo sapiens
Mu-type opioid receptor = Mu-type opioid receptor (Homo sapiens, UniProt P35372); assay: (§1) Counterscreen for agonists of heterodimerization of the mu 1 (OPRM1) and delta 1 (OPRD1) opioid receptors: Luminescence-based cell-based high throughput dose response assay to identify agonists of OPRM1 homodimerization.; assay type: functional
Chain of Mu-type opioid receptor (P35372 whole entry): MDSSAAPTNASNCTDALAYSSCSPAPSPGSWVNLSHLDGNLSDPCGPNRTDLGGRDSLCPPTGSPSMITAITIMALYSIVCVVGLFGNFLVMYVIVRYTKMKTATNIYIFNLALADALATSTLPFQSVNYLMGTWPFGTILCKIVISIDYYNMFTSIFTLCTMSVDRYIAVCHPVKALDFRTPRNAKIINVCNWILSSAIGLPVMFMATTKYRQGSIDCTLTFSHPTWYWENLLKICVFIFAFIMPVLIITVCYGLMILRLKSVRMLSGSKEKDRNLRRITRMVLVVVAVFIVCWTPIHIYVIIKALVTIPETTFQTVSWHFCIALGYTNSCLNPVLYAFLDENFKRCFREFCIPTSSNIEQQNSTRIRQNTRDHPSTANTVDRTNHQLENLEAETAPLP

[6] = molecular target: 5-hydroxytryptamine receptor 5A (Homo sapiens, UniProt P47898); assay: Counterscreen for agonists of OPRM1-OPRD1 heterodimerization: luminescence-based cell-based high throughput dose response assay to identify agonists of 5-hydroxytryptamine (serotonin) 5A receptor (HTR5A). [Related pubchem assays (depositor defined):AID504326, AID504355, AID504692, AID504904, AID504905]; assay type: functional
Chain of 5-hydroxytryptamine receptor 5A (P47898 whole entry): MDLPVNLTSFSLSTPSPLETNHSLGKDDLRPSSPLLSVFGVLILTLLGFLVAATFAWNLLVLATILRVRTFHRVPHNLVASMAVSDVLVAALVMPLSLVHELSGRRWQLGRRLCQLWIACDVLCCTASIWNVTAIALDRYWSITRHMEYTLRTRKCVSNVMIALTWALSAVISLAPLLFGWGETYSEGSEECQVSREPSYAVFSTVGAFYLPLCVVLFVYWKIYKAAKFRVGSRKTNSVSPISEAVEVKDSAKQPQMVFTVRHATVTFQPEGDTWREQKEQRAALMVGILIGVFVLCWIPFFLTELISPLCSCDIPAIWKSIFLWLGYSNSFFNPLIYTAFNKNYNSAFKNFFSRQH

[7] = molecular target: Delta-type opioid receptor (Homo sapiens, UniProt P41143); assay: as §1, with “of OPRD1” for “of OPRM1”, “homodimerization. [Related pubchem assays (depositor defined):AID504326, AID504355, AID504692, AID504904, AID504905]” for “homodimerization.”; assay type: functional
Chain of Delta-type opioid receptor (P41143 whole entry): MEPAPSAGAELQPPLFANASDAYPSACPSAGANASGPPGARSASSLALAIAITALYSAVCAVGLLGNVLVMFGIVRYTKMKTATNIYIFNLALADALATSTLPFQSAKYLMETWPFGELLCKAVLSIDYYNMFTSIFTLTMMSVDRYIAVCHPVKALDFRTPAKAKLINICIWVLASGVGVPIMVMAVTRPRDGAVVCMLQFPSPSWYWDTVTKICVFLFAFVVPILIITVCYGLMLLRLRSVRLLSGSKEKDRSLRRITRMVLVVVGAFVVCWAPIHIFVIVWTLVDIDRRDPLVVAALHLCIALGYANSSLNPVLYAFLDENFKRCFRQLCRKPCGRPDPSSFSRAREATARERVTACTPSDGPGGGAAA

[8] = molecular target: Voltage-gated inwardly rectifying potassium channel KCNH2 (Homo sapiens, UniProt Q12809); assay: concentration-dependent hERG rescue from blockers – cell-based, thallium flux, dose response (AID 2121); assay type: ADME
Chain of Voltage-gated inwardly rectifying potassium channel KCNH2 (Q12809 whole entry): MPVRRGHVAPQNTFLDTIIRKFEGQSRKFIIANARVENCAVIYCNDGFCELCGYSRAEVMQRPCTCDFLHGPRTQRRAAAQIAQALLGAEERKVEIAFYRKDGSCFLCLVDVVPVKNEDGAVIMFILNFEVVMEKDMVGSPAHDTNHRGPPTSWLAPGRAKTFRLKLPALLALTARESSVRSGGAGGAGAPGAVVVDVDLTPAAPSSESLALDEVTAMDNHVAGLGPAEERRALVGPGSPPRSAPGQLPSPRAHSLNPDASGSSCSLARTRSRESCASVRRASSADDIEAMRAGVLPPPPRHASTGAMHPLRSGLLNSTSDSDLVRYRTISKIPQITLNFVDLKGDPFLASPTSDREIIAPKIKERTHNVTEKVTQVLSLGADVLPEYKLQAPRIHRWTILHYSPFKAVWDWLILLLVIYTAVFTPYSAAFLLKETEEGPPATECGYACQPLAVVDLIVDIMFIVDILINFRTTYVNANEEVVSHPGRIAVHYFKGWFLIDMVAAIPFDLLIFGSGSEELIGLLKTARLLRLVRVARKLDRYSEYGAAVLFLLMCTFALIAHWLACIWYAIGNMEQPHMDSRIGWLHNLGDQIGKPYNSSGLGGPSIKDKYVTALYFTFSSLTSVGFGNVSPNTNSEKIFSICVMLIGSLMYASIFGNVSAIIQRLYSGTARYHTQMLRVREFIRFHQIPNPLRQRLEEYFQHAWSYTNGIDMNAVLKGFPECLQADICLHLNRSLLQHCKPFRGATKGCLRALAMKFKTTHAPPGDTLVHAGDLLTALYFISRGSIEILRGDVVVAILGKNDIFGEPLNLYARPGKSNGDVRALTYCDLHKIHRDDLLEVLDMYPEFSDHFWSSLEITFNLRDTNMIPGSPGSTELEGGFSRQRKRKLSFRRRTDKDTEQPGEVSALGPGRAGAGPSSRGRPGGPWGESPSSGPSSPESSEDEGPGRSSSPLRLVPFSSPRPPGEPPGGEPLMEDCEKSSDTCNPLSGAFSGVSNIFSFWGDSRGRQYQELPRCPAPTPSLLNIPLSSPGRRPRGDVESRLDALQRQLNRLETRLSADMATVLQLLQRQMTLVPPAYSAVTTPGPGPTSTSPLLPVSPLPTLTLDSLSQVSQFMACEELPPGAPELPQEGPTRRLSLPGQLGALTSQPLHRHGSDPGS

CC(C)C(=O)N1CCN(c2ccnc3cc(Cl)ccc23)CC1
AC50 (Candida albicans [1]): < 0.195 µM (active) | AC50 (Candida albicans [2]): 3.03 µM (active)

Cc1cc(OCC(=O)N2CCC(C(N)=O)CC2)c2c(C)cc(=O)oc2c1
IC50 [3]: > 67.6 µM (inactive) | IC50 (HEK293 [4]): > 67.6 µM (inactive)

Cc1ccccc1Cn1c(O)c(N=NC(S)=Nc2ccccc2F)c2ccccc21
AC50 (HEK293 [5]): 3.18 µM (active) | EC50 (Mu-type opioid receptor): > 92.5 µM (inactive) | EC50 [6]: > 92.5 µM (inactive) | EC50 [7]: > 92.5 µM (inactive) | EC50 [8]: 0.87 µM (active)
